This is an account of results in patent US10314831B2, “RAC1 inhibitors of neurofibroma formation” (Indiana University Research and Technology Corporation, priority 2014, dated 2019).

For data set [1] the following is noted: previous work; cited from earlier work.
Data set [2] relates to Nf1-/- Schwann cells. The data set can be described thus: PDGF-mediated proliferation of NF1-deficient Schwann cells ([3H]-thymidine). The data set is classed as cell-based, murine. As for the experimental part:
(§1) FIGS. 3A-3C depicts various properties of compound C20. FIG. 3A) Compound C20 inhibits PDGF-mediated Rac1-GTP activity at 0.5 μM in murine-derived neurofibroma cells. After 24-hour starvation in 0.5% BSA/DMEM, Nf1−/− Schwann cells were pretreated with compound C20 at the indicated concentrations. Cells were then stimulated with 50 ng/mL PDGF for 2 minutes and harvested for immunoprecipitation and activity assays. FIG. 3B) Compound C20 specifically interfered with Rac1-Tiam1 interactions at 15 nM in a GEF assay using purified protein. FIG. 3C) In [^3H]-thymidine dose-inhibition experiments, murine derived Nf1−/− Schwann cells were pre-treated with increasing quantities of the known Rac1 inhibitor NSC23766 or with putative Rac1 inhibitor C20.
In initial screens assaying platelet derived growth factor (PDGF)-mediated proliferation in NF1-deficient Schwann cells, compound C20 (KM04569, Ryan Scientific) was identified. C20 inhibited Schwann cell proliferation at 2 μM and Rac1GTP activity at 0.5 μM (FIGS. 3A-C). The structure of C20 is shown below:
Several analogs of C20 were identified or synthesized and were then screened using the NF1−/− Schwann cell proliferation assay. The initial set of thirteen analogs were developed (Table 1; First SAR) by making substitutions in the C and D pharmacophore elements.

Data set [3] concerns the target T1, Rac1-GTP (Mus musculus, UniProt P63001).
T1 construct: endogenous in cells; host or cells: murine-derived Nf1-/- Schwann cells
The data set can be described thus: PDGF-mediated Rac1-GTP activity in Nf1-/- Schwann cells (immunoprecipitation and activity assay). The data set is classed as cell-based. The following applies: murine-derived neurofibroma cells (Nf1-/- Schwann cells), 50 ng/mL PDGF for 2 minutes. As for the experimental part: FIG. 2 depicts the inhibition of Rac1-GTP activity by compound C20-26. Compound C20-26 inhibits PDGF-mediated Rac1-GTP activity at 40 nM in murine-derived neurofibroma cells. After 24-hour starvation in 0.5% BSA/DMEM, Nf1−/−Schwann cells were pretreated with compound C20-26 at the indicated concentrations. Cells were then stimulated with 50 ng/mL PDGF for 2 minutes and harvested for immunoprecipitation.
as §1

Data set [4] concerns the target T2, Rac1-Tiam1 interactions (Homo sapiens, UniProt P63000).
T2 construct: purchased Cytoskeleton, Inc. BK100
The data set can be described thus: Rho-GEF exchange assay with purified Tiam1 and Rac1 (Cytoskeleton BK100 kit). The data set is classed as biochemical. How it is done: as §1
Rho-GEF exchange experiments using a commercially available kit that measures guanine exchange fluorescence quantification (Cat #BK100; Cytoskeleton, Inc., Denver, Colo.) were conducted to measure GEF inhibition by C20.

For data set [5], the system named is Ras-GTP. The data set can be described thus: Ras-GTP activation. The data set is classed as cell-based. The conditions noted are these: data not shown. The text has this:
(§2) No effect of C20 on Ras-GTP activation or Akt phosphorylation was observed (data not shown). However, C20 mitigated Erk1/2 phosphorylation.

The subject of data set [6] is Erk1/2. The data set can be described thus: Erk1/2 phosphorylation. The data set is classed as cell-based.
Source text: as §2

Data set [7] has as its system Akt. The data set can be described thus: Akt phosphorylation. The data set is classed as cell-based. The conditions noted are these: data not shown.
Source text: as §2

Data set [8] deals with Rac1 (Homo sapiens, UniProt P63000). The conditions noted are these: previous work; cited from earlier work.

In the case of `CCN(CC)CCCC(C)Nc1nc(C)cc(Nc2ccc3nc(C)cc(N)c3c2)n1` (stereo not shown) [NSC23766], in data set [1], the toxicity result is on record as “high toxicity”.
Broadly, the IC50 is the concentration that gives 50% inhibition. `O=S(=O)(Oc1cc(Cl)cc(Cl)c1)c1ccc(-c2ccccn2)s1` [Compound C20]: the IC50 in data set [2] (Mus musculus, murine derived Nf1-/- Schwann cells, approximate, read-out: IC50, [3H]-thymidine dose-inhibition) was approximately 2000 nM. In addition, the “concentration inhibiting Schwann cell proliferation” value in data set [2] (PDGF-mediated proliferation, NF1-deficient Schwann cells) came to 2 µM. Besides, the “concentration inhibiting PDGF-mediated Rac1-GTP activity” value in data set [3] was 0.5 µM. Also, in data set [4] (GEF assay using purified protein), the “concentration interfering with Rac1-Tiam1 interactions” value was determined as 15 nM. Besides, the GEF inhibition result in data set [4] (incubating Tiam1 and Rac1) is reported as “dose-dependent GEF inhibition”. In data set [5], the “effect on Ras-GTP activation” value is “No effect”. In data set [6], the “effect on Erk1/2 phosphorylation” value is recorded as “mitigated”. In addition, in data set [7], the “effect on Akt phosphorylation” value is on record as “No effect”.
With `CCn1c2ccccc2c2cc(Nc3ccnc(NCCCN4CCOCC4)n3)ccc21` [EHop-016], in data set [8], the “concentration inhibiting Rac1” value was 1.1 µM.
